In US20240270762A1, “PENICILLIN-BINDING PROTEIN INHIBITORS” (priority 2021, published 2024):
Values after ≈ are worked out from the molar mass of the structure shown.

Tests used:
[1] = test system: N. gonorrhoeae ATCC 49226; test: Liquid broth MIC in Fastidious broth; conditions: Neisseria gonorrhoeae, ATCC49226, read-out: Minimum Inhibitory Concentration (MIC), N. gonorrhoeae ATCC 49226
Method: Additional antibacterial testing of the series was performed in 8 reference strains of N. gonorrhoeae (ATCC 49226, FA1090, MS 11, WHO G, WHO L, WHO M, WHO K, WHO X, WHO Z, WHO Q, CDC-0197). ATCC 49226, FA1090, MS11, WHO G, WHO L, and WHO M produce wild type or wild-type like PBP2. WHO K, WHO X, WHO Z, WHO Q, and CDC-0197 produce mosaic PBP2. Liquid broth-based assays were used for antibacterial testing of PBP inhibitors in Neisseria gonorrhoeae. Briefly, cryo-preserved bacterial cultures of clinical strains were streaked for isolation on Chocolate Agar (72 g/L (2×) GC Agar Base (BD #228950) and 2% (2×) Hemoglobin was autoclaved at 121° C. for 20 minutes to sterilize. Once cooled to ˜50° C. the 2×GC Agar Base and 2× Hemoglobin solutions are combined and 1% IsoVitaleX Enrichment (BD #211876) was added to the solution). Strains were incubated at 36° C. and 5% CO2 to allow growth of colonies, 24 hours before inoculum preparation. 2-fold serial dilutions of test compounds were conducted in a 96 well plate with a final volume of 75 μL per well at 2-fold the final desired concentration in Fastidious broth (Remel #R07664). For preparation of assay inoculum, a direct suspension was prepared by aseptically swabbing 10-15 colonies from agar plates into culture tubes containing 2 mL of fresh sterile saline. After the dilution plates were set up, direct suspensions were then diluted in a cuvette containing sterile saline and the optical density was measured at 600 nm. Inocula were diluted such that 75 μL of this culture in Fastidious broth results in a starting bacterial concentration of 5×10^5 CFU/mL when added to the dilution plates. The plates were incubated for ˜24 hours at 36° C. and 5% CO2.

P. aeruginosa ATCC 35151 = test: microbe, parasite or virus in culture; format: cell-based; conditions: Pseudomonas aeruginosa, ATCC35151, read-out: MIC P. aeruginosa ATCC 35151
N. gonorrhoeae CDC-0197 = test: Liquid broth MIC in Fastidious broth; conditions: Neisseria gonorrhoeae, CDC0197, read-out: Minimum Inhibitory Concentration (MIC), N. gonorrhoeae CDC-0197
K. pneumoniae SI-117 = test: microbe, parasite or virus in culture; format: cell-based; conditions: Klebsiella pneumoniae, SI117, read-out: MIC K. pneumoniae SI-117
N. gonorrhoeae WHO M = test: Liquid broth MIC in Fastidious broth; conditions: Neisseria gonorrhoeae, read-out: Minimum Inhibitory Concentration (MIC), N. gonorrhoeae WHO M
E. coli D22 = test: microbe, parasite or virus in culture; format: cell-based; conditions: Escherichia coli, D22, read-out: MIC E. coli D22
N. gonorrhoeae WHO K = test: Liquid broth MIC in Fastidious broth; conditions: Neisseria gonorrhoeae, read-out: Minimum Inhibitory Concentration (MIC), N. gonorrhoeae WHO K
N. gonorrhoeae WHO X = test: Liquid broth MIC in Fastidious broth; conditions: Neisseria gonorrhoeae, read-out: Minimum Inhibitory Concentration (MIC), N. gonorrhoeae WHO X
[2] = test system: P. aeruginosa (ΔmexAB-oprM); test: Broth microdilution MIC in CAMHB; format: cell-based; conditions: Pseudomonas aeruginosa; read-out: MIC P. aeruginosa ΔmexAB-oprM
N. gonorrhoeae WHO G = test: Liquid broth MIC in Fastidious broth; conditions: Neisseria gonorrhoeae, read-out: Minimum Inhibitory Concentration (MIC), N. gonorrhoeae WHO G
[3] = biological target: T1, PBP3 from Pseudomonas aeruginosa (PAO1) (Pseudomonas aeruginosa, UniProt G3XD46); test: Bocillin-FL fluorescence polarization competition binding, P. aeruginosa PBP3; conditions: Binding affinity to P. aeruginosa PBP3; fluorescence polarization competition binding assay using Bocillin-FL; read-out: P. aeruginosa PBP3 Potency
T1 construct: made in house
T1 sequence (G3XD46 whole entry): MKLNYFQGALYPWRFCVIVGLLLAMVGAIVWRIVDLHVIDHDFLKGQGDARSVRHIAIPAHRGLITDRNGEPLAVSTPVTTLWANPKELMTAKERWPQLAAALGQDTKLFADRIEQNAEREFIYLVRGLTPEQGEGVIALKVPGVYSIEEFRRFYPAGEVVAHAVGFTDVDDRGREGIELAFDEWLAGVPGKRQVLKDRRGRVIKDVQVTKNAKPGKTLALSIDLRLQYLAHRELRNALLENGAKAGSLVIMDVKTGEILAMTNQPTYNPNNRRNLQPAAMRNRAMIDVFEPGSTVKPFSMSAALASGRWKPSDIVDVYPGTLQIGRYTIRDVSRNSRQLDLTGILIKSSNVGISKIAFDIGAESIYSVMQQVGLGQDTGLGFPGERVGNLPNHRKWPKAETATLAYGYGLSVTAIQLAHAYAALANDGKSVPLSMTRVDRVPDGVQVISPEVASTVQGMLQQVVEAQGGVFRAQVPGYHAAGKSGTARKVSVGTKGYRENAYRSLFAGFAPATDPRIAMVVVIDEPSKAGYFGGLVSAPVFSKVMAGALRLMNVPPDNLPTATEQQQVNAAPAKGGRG
In short: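 Purified PBP was preincubated with inhibitor (E. coli PBP3 1.5 μM, 30 min; P. aeruginosa PBP3 0.75 μM, A. baumannii PBP3 0.2 μM and PBP1a 1 μM, 15 min), then Bocillin-FL (0.1 μM; 0.05 μM for PBP1a) added and FP read up to 60 min. EC50 = 50% loss of bound probe.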

N. gonorrhoeae FA1090 = test: Liquid broth MIC in Fastidious broth; conditions: Neisseria gonorrhoeae, FA1090, read-out: Minimum Inhibitory Concentration (MIC), N. gonorrhoeae FA 1090
E. coli ATCC 25922 = test: microbe, parasite or virus in culture; format: cell-based; conditions: Escherichia coli, ATCC25922, read-out: MIC E. coli 25922
K. pneumoniae 848844 = test: microbe, parasite or virus in culture; format: cell-based; conditions: Klebsiella pneumoniae, 848844, read-out: MIC K. pneumoniae 848844
E. coli AG100A = test: Broth microdilution MIC in CAMHB; format: cell-based; conditions: Escherichia coli, read-out: MIC E. coli AG100A
N. gonorrhoeae WHO Q = test: Liquid broth MIC in Fastidious broth; conditions: Neisseria gonorrhoeae, read-out: Minimum Inhibitory Concentration (MIC), N. gonorrhoeae WHO Q

SMILES	MIC [1] [µg/mL]	MIC (P. aeruginosa ATCC 35151) [µg/mL]	MIC (N. gonorrhoeae CDC-0197) [µg/mL]	MIC (K. pneumoniae SI-117) [µg/mL]	MIC (N. gonorrhoeae WHO M) [µg/mL]	MIC (E. coli D22) [µg/mL]	MIC (N. gonorrhoeae WHO K) [µg/mL]	MIC (N. gonorrhoeae WHO X) [µg/mL]	MIC [2] [µg/mL]	MIC (N. gonorrhoeae WHO G) [µg/mL]	IC50 [3] [µM]	MIC (N. gonorrhoeae FA1090) [µg/mL]	MIC (E. coli ATCC 25922) [µg/mL]	MIC (K. pneumoniae 848844) [µg/mL]	MIC (E. coli AG100A) [µg/mL]	MIC (N. gonorrhoeae WHO Q) [µg/mL]
CCN1CCN(C(=O)NC(C(=O)N[C@H]2Cc3cccc(C(=O)O)c3OB2O)c2ccc(P(=O)(O)O)cc2)C1=O (stereo partly drawn) [Example 42, (3R)-3-(2-(3-ethyl-2-oxoimidazolidine-1-carboxamido)-2-(4-phosphonophenyl)acetamido)-2-hydroxy-3,4-dihydro-2H-benzo[e][1,2]oxaborinine-8-carboxylic acid]	< 1	< 1	< 1	> 128	< 1	2 to 4 (≈ 3.57 to 7.14 µM)	1 to 2 (≈ 1.78 to 3.57 µM)	1 to 2 (≈ 1.78 to 3.57 µM)	8 to 16 (≈ 14.3 to 28.6 µM)	< 1	< 10	< 1	32 to 64 (≈ 57.1 to 114 µM)	> 128	8 to 16 (≈ 14.3 to 28.6 µM)	< 1
CS(=O)(=O)N1CCC[C@H]1C(=O)N[C@H](C(=O)N[C@H]1Cc2cccc(C(=O)O)c2OB1O)c1ccc(P(=O)(O)O)cc1 [Example 43, (R)-2-hydroxy-3-((S)-2-((S)-1-(methylsulfonyl)pyrrolidine-2-carboxamido)-2-(4-phosphonophenyl)acetamido)-3,4-dihydro-2H-benzo[e][1,2]oxaborinine-8-carboxylic acid]	4 to 8 (≈ 6.72 to 13.4 µM)	8 to 16 (≈ 13.4 to 26.9 µM)	1 to 2 (≈ 1.68 to 3.36 µM)	> 128	1 to 2 (≈ 1.68 to 3.36 µM)	32 to 64 (≈ 53.8 to 108 µM)	16 to 32 (≈ 26.9 to 53.8 µM)	16 to 32 (≈ 26.9 to 53.8 µM)	> 128	4 to 8 (≈ 6.72 to 13.4 µM)	50 to 250	1 to 2 (≈ 1.68 to 3.36 µM)	> 128	> 128	> 128	4 to 8 (≈ 6.72 to 13.4 µM)
CS(=O)(=O)N1CCC[C@H]1C(=O)N[C@@H](C(=O)N[C@H]1Cc2cccc(C(=O)O)c2OB1O)c1ccc(P(=O)(O)O)cc1 [Example 44, (R)-2-hydroxy-3-((R)-2-((S)-1-(methylsulfonyl)pyrrolidine-2-carboxamido)-2-(4-phosphonophenyl)acetamido)-3,4-dihydro-2H-benzo[e][1,2]oxaborinine-8-carboxylic acid]	1 to 2 (≈ 1.68 to 3.36 µM)	2 to 4 (≈ 3.36 to 6.72 µM)	1 to 2 (≈ 1.68 to 3.36 µM)	> 128	< 1	8 to 16 (≈ 13.4 to 26.9 µM)	4 to 8 (≈ 6.72 to 13.4 µM)	16 to 32 (≈ 26.9 to 53.8 µM)	32 to 64 (≈ 53.8 to 108 µM)	1 to 2 (≈ 1.68 to 3.36 µM)	< 10	< 1	> 128	> 128	32 to 64 (≈ 53.8 to 108 µM)	1 to 2 (≈ 1.68 to 3.36 µM)
CS(=O)(=O)N1CCN(C(=O)NC(C(=O)N[C@H]2Cc3cccc(C(=O)O)c3OB2O)c2ccc(P(=O)(O)O)c(F)c2O)C1=O (stereo partly drawn) [Example 48, (3R)-3-(2-(3-fluoro-2-hydroxy-4-phosphonophenyl)-2-(3-(methylsulfonyl)-2-oxoimidazolidine-1-carboxamido)acetamido)-2-hydroxy-3,4-dihydro-2H-benzo[e][1,2]oxaborinine-8-carboxylic acid]	< 1	8 to 16 (≈ 12.4 to 24.8 µM)	1 to 2 (≈ 1.55 to 3.1 µM)	> 128	< 1	8 to 16 (≈ 12.4 to 24.8 µM)	4 to 8 (≈ 6.21 to 12.4 µM)	16 to 32 (≈ 24.8 to 49.7 µM)	> 128	< 1	10 to 50	< 1	> 128	> 128	> 128	1 to 2 (≈ 1.55 to 3.1 µM)
O=C(O)c1cccc2c1OB(O)[C@@H](NC(=O)C(NC(=O)[C@H]1CCCN1)c1ccc(P(=O)(O)O)cc1)C2 (stereo partly drawn) [Example 52, (3R)-2-hydroxy-3-(2-(4-phosphonophenyl)-2-((R)-pyrrolidine-2-carboxamido)acetamido)-3,4-dihydro-2H-benzo[e][1,2]oxaborinine-8-carboxylic acid]	16 to 32 (≈ 30.9 to 61.9 µM)	8 to 16 (≈ 15.5 to 30.9 µM)	16 to 32 (≈ 30.9 to 61.9 µM)	32 to 64 (≈ 61.9 to 124 µM)	16 to 32 (≈ 30.9 to 61.9 µM)	32 to 64 (≈ 61.9 to 124 µM)	16 to 32 (≈ 30.9 to 61.9 µM)	16 to 32 (≈ 30.9 to 61.9 µM)	> 128	16 to 32 (≈ 30.9 to 61.9 µM)	50 to 250	16 to 32 (≈ 30.9 to 61.9 µM)	> 128	> 128	32 to 64 (≈ 61.9 to 124 µM)	16 to 32 (≈ 30.9 to 61.9 µM)
O=C1CC[C@H](C(=O)NC(C(=O)N[C@H]2Cc3cccc(C(=O)O)c3OB2O)c2ccc(P(=O)(O)O)cc2)N1 (stereo partly drawn) [Example 53, (3R)-2-hydroxy-3-(2-((R)-5-oxopyrrolidine-2-carboxamido)-2-(4-phosphonophenyl)acetamido)-3,4-dihydro-2H-benzo[e][1,2]oxaborinine-8-carboxylic acid]	1 to 2 (≈ 1.88 to 3.76 µM)	8 to 16 (≈ 15.1 to 30.1 µM)	4 to 8 (≈ 7.53 to 15.1 µM)	> 128	1 to 2 (≈ 1.88 to 3.76 µM)	32 to 64 (≈ 60.2 to 120 µM)	16 to 32 (≈ 30.1 to 60.2 µM)	16 to 32 (≈ 30.1 to 60.2 µM)	> 128	1 to 2 (≈ 1.88 to 3.76 µM)	10 to 50	1 to 2 (≈ 1.88 to 3.76 µM)	> 128	> 128	> 128	16 to 32 (≈ 30.1 to 60.2 µM)
O=C(O)c1cccc2c1OB(O)[C@@H](NC(=O)C(NC(=O)N1CCCNC1=O)c1ccc(P(=O)(O)O)cc1)C2 (stereo partly drawn) [Example 56, (3R)-2-hydroxy-3-(2-(2-oxohexahydropyrimidine-1-carboxamido)-2-(4-phosphonophenyl)acetamido)-3,4-dihydro-2H-benzo[e][1,2]oxaborinine-8-carboxylic acid]	1 to 2 (≈ 1.83 to 3.66 µM)	< 1	4 to 8 (≈ 7.32 to 14.6 µM)	> 128	< 1	8 to 16 (≈ 14.6 to 29.3 µM)	16 to 32 (≈ 29.3 to 58.6 µM)	16 to 32 (≈ 29.3 to 58.6 µM)	> 128	1 to 2 (≈ 1.83 to 3.66 µM)	< 10	< 1	> 128	> 128	32 to 64 (≈ 58.6 to 117 µM)	4 to 8 (≈ 7.32 to 14.6 µM)
O=C(O)c1cccc2c1OB(O)[C@@H](NC(=O)C(NC(=O)N1CCCC1=O)c1ccc(P(=O)(O)O)cc1)C2 (stereo partly drawn) [Example 57, (3R)-2-hydroxy-3-(2-(2-oxopyrrolidine-1-carboxamido)-2-(4-phosphonophenyl)acetamido)-3,4-dihydro-2H-benzo[e][1,2]oxaborinine-8-carboxylic acid]	< 1	2 to 4 (≈ 3.76 to 7.53 µM)	< 1	> 128	< 1	8 to 16 (≈ 15.1 to 30.1 µM)	4 to 8 (≈ 7.53 to 15.1 µM)	4 to 8 (≈ 7.53 to 15.1 µM)	> 128	< 1	< 10	< 1	> 128	> 128	32 to 64 (≈ 60.2 to 120 µM)	1 to 2 (≈ 1.88 to 3.76 µM)
NS(=O)(=O)NC(C(=O)N[C@H]1Cc2cccc(C(=O)O)c2OB1O)c1ccc(P(=O)(O)O)cc1 (stereo partly drawn) [Example 58, (3R)-2-hydroxy-3-(2-(4-phosphonophenyl)-2-(sulfamoylamino)acetamido)-3,4-dihydro-2H-benzo[e][1,2]oxaborinine-8-carboxylic acid]	16 to 32 (≈ 32.1 to 64.1 µM)	> 128	16 to 32 (≈ 32.1 to 64.1 µM)	> 128	16 to 32 (≈ 32.1 to 64.1 µM)	> 128	16 to 32 (≈ 32.1 to 64.1 µM)	16 to 32 (≈ 32.1 to 64.1 µM)	> 128	16 to 32 (≈ 32.1 to 64.1 µM)	> 250	16 to 32 (≈ 32.1 to 64.1 µM)	> 128	> 128	> 128	16 to 32 (≈ 32.1 to 64.1 µM)
